Assay results: PubChem BioAssay (NCI)
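Assay format: 96-well plates, 48-hour exposure. At the GI50, growth is halved. The concentration for full growth arrest is given as TGI.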

Tests used:
Experiment in all cases: DTP human tumour cell line panel, 48 h
BT-549 breast = system: BT-549 breast
OVCAR-3 ovarian = system: OVCAR-3 ovarian
SNB-75 CNS = system: SNB-75 CNS
OVCAR-8 ovarian = system: OVCAR-8 ovarian
HS 578T breast = system: HS 578T breast
COLO 205 colon = system: COLO 205 colon
HOP-92 NSCLC = system: HOP-92 NSCLC
LOX IMVI melanoma = system: LOX IMVI melanoma
NCI/ADR-RES ovarian = system: NCI/ADR-RES ovarian
UO-31 renal = system: UO-31 renal
T-47D breast = system: T-47D breast
HT29 colon = system: HT29 colon
SN12C renal = system: SN12C renal
SR leukemia = system: SR leukemia
CCRF-CEM leukemia = system: CCRF-CEM leukemia
EKVX NSCLC = system: EKVX NSCLC
K-562 leukemia = system: K-562 leukemia
SK-MEL-5 melanoma = system: SK-MEL-5 melanoma
M14 melanoma = system: M14 melanoma
IGROV1 ovarian = system: IGROV1 ovarian
MDA-MB-231 breast = system: MDA-MB-231 breast
SNB-19 CNS = system: SNB-19 CNS
MALME-3M melanoma = system: MALME-3M melanoma
MOLT-4 leukemia = system: MOLT-4 leukemia
SF-295 CNS = system: SF-295 CNS
786-0 renal = system: 786-0 renal
U251 CNS = system: U251 CNS
HCT-116 colon = system: HCT-116 colon
SK-OV-3 ovarian = system: SK-OV-3 ovarian
TK-10 renal = system: TK-10 renal
PC-3 prostate = system: PC-3 prostate
OVCAR-4 ovarian = system: OVCAR-4 ovarian
NCI-H226 lung = system: NCI-H226 lung
UACC-62 melanoma = system: UACC-62 melanoma
DU-145 prostate = system: DU-145 prostate
ACHN renal = system: ACHN renal
OVCAR-5 ovarian = system: OVCAR-5 ovarian
SF-268 CNS = system: SF-268 CNS
CAKI-1 renal = system: CAKI-1 renal
HL-60(TB) leukemia = system: HL-60(TB) leukemia
HOP-62 NSCLC = system: HOP-62 NSCLC
RPMI-8226 leukemia = system: RPMI-8226 leukemia
SF-539 CNS = system: SF-539 CNS
SW-620 colon = system: SW-620 colon
RXF 393 renal = system: RXF 393 renal
A498 renal = system: A498 renal
UACC-257 melanoma = system: UACC-257 melanoma
NCI-H522 lung = system: NCI-H522 lung
A549 NSCLC = system: A549 NSCLC
MCF7 breast = system: MCF7 breast
NCI-H460 lung = system: NCI-H460 lung
KM12 colon = system: KM12 colon
SK-MEL-28 melanoma = system: SK-MEL-28 melanoma
MDA-MB-435 = system: MDA-MB-435
HCT-15 colon = system: HCT-15 colon
SK-MEL-2 melanoma = system: SK-MEL-2 melanoma
HCC-2998 colon = system: HCC-2998 colon

Structure (SMILES): COc1cc2cc(Oc3ccc(NC(=O)c4cccc(C(F)(F)F)c4)cc3)c(C)nc2cc1OCCN1CCCCC1
- GI50 (BT-549 breast): > 100 µM
- TGI (BT-549 breast): > 100 µM
- GI50 (OVCAR-3 ovarian): 22.3 µM
- TGI (OVCAR-3 ovarian): 47.6 µM
- GI50 (SNB-75 CNS): 15 µM
- TGI (SNB-75 CNS): 29.9 µM
- GI50 (OVCAR-8 ovarian): 18.2 µM
- TGI (OVCAR-8 ovarian): 36.7 µM
- GI50 (HS 578T breast): 19.4 µM
- TGI (HS 578T breast): 53 µM
- GI50 (COLO 205 colon): 16.4 µM
- TGI (COLO 205 colon): 31 µM
- GI50 (HOP-92 NSCLC): 21.7 µM
- TGI (HOP-92 NSCLC): > 100 µM
- GI50 (LOX IMVI melanoma): 17.8 µM
- TGI (LOX IMVI melanoma): 32.5 µM
- GI50 (NCI/ADR-RES ovarian): 33.9 µM
- TGI (NCI/ADR-RES ovarian): > 100 µM
- GI50 (UO-31 renal): 15.4 µM
- TGI (UO-31 renal): 30 µM
- GI50 (T-47D breast): 18.1 µM
- TGI (T-47D breast): 46.1 µM
- GI50 (HT29 colon): 18 µM
- TGI (HT29 colon): 37.1 µM
- GI50 (SN12C renal): 17.6 µM
- TGI (SN12C renal): 34.4 µM
- GI50 (SR leukemia): 18.2 µM
- TGI (SR leukemia): 46.1 µM
- GI50 (CCRF-CEM leukemia): 29.8 µM
- TGI (CCRF-CEM leukemia): > 100 µM
- GI50 (EKVX NSCLC): 31.6 µM
- TGI (EKVX NSCLC): > 100 µM
- GI50 (K-562 leukemia): 19.3 µM
- TGI (K-562 leukemia): 47 µM
- GI50 (SK-MEL-5 melanoma): 17.1 µM
- TGI (SK-MEL-5 melanoma): 30.9 µM
- GI50 (M14 melanoma): 17.9 µM
- TGI (M14 melanoma): 35.1 µM
- GI50 (IGROV1 ovarian): 38.4 µM
- TGI (IGROV1 ovarian): > 100 µM
- GI50 (MDA-MB-231 breast): 18.4 µM
- TGI (MDA-MB-231 breast): 36.9 µM
- GI50 (SNB-19 CNS): 34.8 µM
- TGI (SNB-19 CNS): > 100 µM
- GI50 (MALME-3M melanoma): 18.3 µM
- TGI (MALME-3M melanoma): 34 µM
- GI50 (MOLT-4 leukemia): 20.9 µM
- TGI (MOLT-4 leukemia): 58.5 µM
- GI50 (SF-295 CNS): 18.3 µM
- TGI (SF-295 CNS): 34 µM
- GI50 (786-0 renal): 16.5 µM
- TGI (786-0 renal): 32.8 µM
- GI50 (U251 CNS): 17.8 µM
- TGI (U251 CNS): 34 µM
- GI50 (HCT-116 colon): 20.6 µM
- TGI (HCT-116 colon): 48.9 µM
- GI50 (SK-OV-3 ovarian): > 100 µM
- TGI (SK-OV-3 ovarian): > 100 µM
- GI50 (TK-10 renal): > 100 µM
- TGI (TK-10 renal): > 100 µM
- GI50 (PC-3 prostate): 19 µM
- TGI (PC-3 prostate): 42 µM
- GI50 (OVCAR-4 ovarian): 19.4 µM
- TGI (OVCAR-4 ovarian): 45.7 µM
- GI50 (NCI-H226 lung): > 100 µM
- TGI (NCI-H226 lung): > 100 µM
- GI50 (UACC-62 melanoma): 18.8 µM
- TGI (UACC-62 melanoma): 36.1 µM
- GI50 (DU-145 prostate): 41.6 µM
- TGI (DU-145 prostate): > 100 µM
- GI50 (ACHN renal): 21.5 µM
- TGI (ACHN renal): 49.2 µM
- GI50 (OVCAR-5 ovarian): 41.4 µM
- TGI (OVCAR-5 ovarian): > 100 µM
- GI50 (SF-268 CNS): 20.4 µM
- TGI (SF-268 CNS): 43.4 µM
- GI50 (CAKI-1 renal): 16 µM
- TGI (CAKI-1 renal): 32.2 µM
- GI50 (HL-60(TB) leukemia): 19.6 µM
- TGI (HL-60(TB) leukemia): 42.4 µM
- GI50 (HOP-62 NSCLC): 33.6 µM
- TGI (HOP-62 NSCLC): > 100 µM
- GI50 (RPMI-8226 leukemia): 20.6 µM
- TGI (RPMI-8226 leukemia): 52.4 µM
- GI50 (SF-539 CNS): 16.9 µM
- TGI (SF-539 CNS): 30.9 µM
- GI50 (SW-620 colon): 21.3 µM
- TGI (SW-620 colon): 42.8 µM
- GI50 (RXF 393 renal): 13.2 µM
- TGI (RXF 393 renal): 26.6 µM
- GI50 (A498 renal): > 100 µM
- TGI (A498 renal): > 100 µM
- GI50 (UACC-257 melanoma): 17.2 µM
- TGI (UACC-257 melanoma): 32.2 µM
- GI50 (NCI-H522 lung): 16 µM
- TGI (NCI-H522 lung): 31.3 µM
- GI50 (A549 NSCLC): 27.5 µM
- TGI (A549 NSCLC): > 100 µM
- GI50 (MCF7 breast): 14.4 µM
- TGI (MCF7 breast): 29.7 µM
- GI50 (NCI-H460 lung): 19 µM
- TGI (NCI-H460 lung): 37.3 µM
- GI50 (KM12 colon): 30.3 µM
- TGI (KM12 colon): > 100 µM
- GI50 (SK-MEL-28 melanoma): 17.1 µM
- TGI (SK-MEL-28 melanoma): 31.4 µM
- GI50 (MDA-MB-435): 16.7 µM
- TGI (MDA-MB-435): 31.4 µM
- GI50 (HCT-15 colon): 16 µM
- TGI (HCT-15 colon): 30.9 µM
- GI50 (SK-MEL-2 melanoma): > 100 µM
- TGI (SK-MEL-2 melanoma): > 100 µM
- GI50 (HCC-2998 colon): 18.2 µM
- TGI (HCC-2998 colon): 34.6 µM
